Among the test systems are 786-0 renal; ACHN renal; CCRF-CEM leukemia; DMS 114 small cell lung; EKVX NSCLC; KM12 colon; OVCAR-4 ovarian; SK-MEL-28 melanoma; SNB-75 CNS; HCT-116 colon.
Common to all, as to assay: inhibition of tumour cell growth, NCI panel, 48 h

Each structure is given as a SMILES string.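 Where inhibition never reached the appropriate level, the endpoint shown equals the highest concentration tested. Otherwise, values were interpolated linearly from a five-concentration, 48-hour dose response in 96-well plates. GI50 = concentration required for 50% inhibition of growth. The concentration for full growth arrest is given as TGI.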

For `Cc1cccc2c1C(=O)OC2(C)c1cccc2ccccc12` (stereo not drawn), the TGI in the experiment on 786-0 renal is more than 100 µM; in the experiment with ACHN renal, more than 100 µM; in the experiment with CCRF-CEM leukemia, 80.4 µM; in the experiment on DMS 114 small cell lung it was more than 100 µM; with EKVX NSCLC, more than 100 µM; in the experiment with KM12 colon it was more than 100 µM. For the same compound, the results for the TGI with OVCAR-4 ovarian, in the experiment on SK-MEL-28 melanoma and in the experiment on SNB-75 CNS were 67.4 µM, more than 100 µM and 87.7 µM, respectively.
As to `O=C(/C=C1/NC(=O)CS1)Nc1ccccc1`, the TGI in the experiment with 786-0 renal, in the experiment on CCRF-CEM leukemia, in the experiment with DMS 114 small cell lung, in the experiment on EKVX NSCLC, in the experiment on HCT-116 colon and in the experiment on KM12 colon was more than 100 µM throughout. The TGI in the experiment on OVCAR-4 ovarian, in the experiment on SK-MEL-28 melanoma and in the experiment with SNB-75 CNS was more than 100 µM in each case.
In the case of `COc1ccccc1/C=N/N=C(\N)NO`, the TGI was 90 µM in the experiment on 786-0 renal; more than 100 µM in the experiment with ACHN renal; more than 100 µM in the experiment on CCRF-CEM leukemia; more than 100 µM in the experiment on DMS 114 small cell lung; more than 100 µM with EKVX NSCLC; more than 100 µM in the experiment with HCT-116 colon. In addition, the TGI in the experiment on KM12 colon, in the experiment on OVCAR-4 ovarian and with SK-MEL-28 melanoma was more than 100 µM throughout.
As to `N#CC(C#N)=C1SCC(=O)CS1`, the TGI in the experiment on 786-0 renal, in the experiment on CCRF-CEM leukemia, in the experiment on DMS 114 small cell lung, in the experiment on EKVX NSCLC, with HCT-116 colon and in the experiment on KM12 colon was more than 100 µM throughout. The TGI in the experiment with OVCAR-4 ovarian and in the experiment with SNB-75 CNS was more than 100 µM in each case.
`CCOc1ccccc1NC(=O)C1=C(C)NC(C)=C(C(=O)Nc2ccccc2OCC)C1c1ccc(NC(C)=O)cc1`: the TGI in the experiment on 786-0 renal, in the experiment on ACHN renal, with CCRF-CEM leukemia, in the experiment on DMS 114 small cell lung, with EKVX NSCLC and with KM12 colon was more than 100 µM in each case. Also, the TGI was more than 100 µM in the experiment with OVCAR-4 ovarian, more than 100 µM in the experiment with SK-MEL-28 melanoma and 65.6 µM in the experiment with SNB-75 CNS.
As to `O=Cc1ccc(O)c2ncccc12`, the GI50 in the experiment on 786-0 renal was 13400 nM; with ACHN renal, 12.9 µM; in the experiment on CCRF-CEM leukemia, 952 nM; with EKVX NSCLC, 3.01 µM; in the experiment on HCT-116 colon it was 2540 nM; with KM12 colon it was 5.65 µM. Further, the results for the GI50 in the experiment with OVCAR-4 ovarian, with SK-MEL-28 melanoma and in the experiment with SNB-75 CNS were 2910 nM, 7.14 µM and 16900 nM, respectively. Besides, the TGI was 73.2 µM in the experiment on 786-0 renal; more than 100 µM in the experiment with ACHN renal; more than 32 µM in the experiment on CCRF-CEM leukemia; 23.9 µM in the experiment with EKVX NSCLC; 11.7 µM in the experiment with HCT-116 colon; 40.5 µM in the experiment on KM12 colon. In addition, the figures for the TGI with OVCAR-4 ovarian, in the experiment with SK-MEL-28 melanoma and in the experiment on SNB-75 CNS were more than 100 µM, more than 53.3 µM and more than 82.4 µM, respectively.
`Cc1ccc(N2C(=O)/C(=C/c3ccc(N(CCC#N)CCC#N)cc3C)N=C2c2cc([N+](=O)[O-])ccc2Cl)cc1`: the TGI in the experiment with 786-0 renal, with ACHN renal, with CCRF-CEM leukemia, in the experiment with DMS 114 small cell lung, in the experiment on HCT-116 colon and in the experiment on KM12 colon was more than 100 µM in each case. Also, the TGI with OVCAR-4 ovarian, in the experiment with SK-MEL-28 melanoma and in the experiment with SNB-75 CNS was more than 100 µM throughout.
With `C=CCN=C1NC(=O)C(CC(=O)Nc2ccc(C)cc2)S1` (stereo not drawn), the TGI in the experiment with 786-0 renal, in the experiment on ACHN renal, in the experiment with CCRF-CEM leukemia, with DMS 114 small cell lung, in the experiment with EKVX NSCLC and in the experiment with KM12 colon was more than 100 µM in each case. Further, the TGI in the experiment on OVCAR-4 ovarian, in the experiment on SK-MEL-28 melanoma and in the experiment on SNB-75 CNS was more than 100 µM throughout.
With `C=C1CC[C@@H]2[C@](C)(COC(C)=O)[C@H](OC(C)=O)CC[C@@]2(C)[C@@H]1C/C=C1/C(=O)OC[C@H]1OC(C)=O`, the GI50 in the experiment with 786-0 renal was 2020 nM; with ACHN renal, 1.71 µM; in the experiment with CCRF-CEM leukemia, 1120 nM; in the experiment on EKVX NSCLC, 12.9 µM; with HCT-116 colon, 1450 nM; in the experiment with KM12 colon, 10.5 µM. In addition, the GI50 in the experiment on OVCAR-4 ovarian is 3570 nM; in the experiment on SK-MEL-28 melanoma, 1.75 µM; with SNB-75 CNS, 2830 nM. Also, the TGI in the experiment on 786-0 renal amounted to 4.34 µM; in the experiment on ACHN renal, 3.22 µM; in the experiment on CCRF-CEM leukemia it was 5.32 µM; with EKVX NSCLC it was 25.6 µM; with HCT-116 colon, 2.98 µM; in the experiment with KM12 colon, 27.7 µM. The TGI is 15.4 µM in the experiment on OVCAR-4 ovarian, 3.38 µM in the experiment on SK-MEL-28 melanoma and 14.2 µM with SNB-75 CNS.
For `CCCN(CCC)C(=O)[C@H](CC)[C@@H]1CC[C@@H](C)[C@@H]([C@H](C)[C@@H](O)[C@@H](C)C(=O)[C@H](CC)C2O[C@]3(C=C[C@@H](O)[C@]4(CC[C@@](C)([C@H]5CC[C@](O)(CC)[C@H](C)O5)O4)O3)[C@H](C)C[C@@H]2C)O1` (stereo partly drawn), the GI50 in the experiment on 786-0 renal was 2790 nM; with ACHN renal, 3.18 µM; in the experiment on CCRF-CEM leukemia, 2780 nM; with EKVX NSCLC, 2.59 µM; in the experiment on HCT-116 colon, 2160 nM; with KM12 colon, 1.86 µM. Moreover, the GI50 is 2950 nM with OVCAR-4 ovarian, 4.5 µM with SK-MEL-28 melanoma and 1730 nM in the experiment with SNB-75 CNS. The TGI in the experiment with 786-0 renal came out at 9 µM; in the experiment on ACHN renal, 10.3 µM; in the experiment with CCRF-CEM leukemia, 8.83 µM; in the experiment with EKVX NSCLC, 11.7 µM; with HCT-116 colon, 5.98 µM; with KM12 colon, 4.02 µM. The TGI in the experiment on OVCAR-4 ovarian was 13.2 µM; with SK-MEL-28 melanoma, 17.9 µM; with SNB-75 CNS, 14.4 µM.
Regarding `COc1cc(C(=O)CC2(O)C(=O)Nc3c(Cl)cc(Cl)cc32)ccc1O` (stereo not drawn), the TGI in the experiment on 786-0 renal, in the experiment with ACHN renal, with CCRF-CEM leukemia, in the experiment with DMS 114 small cell lung, in the experiment on EKVX NSCLC and in the experiment on KM12 colon was more than 100 µM in each case. The figures for the TGI with OVCAR-4 ovarian, with SK-MEL-28 melanoma and in the experiment with SNB-75 CNS were more than 100 µM, more than 100 µM and 93 µM, respectively.
In the case of `CC1=Nn2c(nnc2-c2ccc(N)cc2)NC(C)(C)C1`, the TGI in the experiment with 786-0 renal, in the experiment on ACHN renal, in the experiment with CCRF-CEM leukemia, in the experiment on DMS 114 small cell lung, in the experiment on EKVX NSCLC and in the experiment on KM12 colon was more than 100 µM in each case. In addition, the TGI in the experiment on OVCAR-4 ovarian and in the experiment on SK-MEL-28 melanoma was more than 100 µM in each case.

The values are drawn from PubChem BioAssay (NCI).
